For twelve molecules, IC50 and inhibition results are on record in patent US8134015B2, “Compound inhibiting in vivo phosphorous transport and medicine containing the same” (Kyowa Hakko Kirin Co., Ltd., priority 2003, dated 2012).

The first assay has as its target T1, rat NaPi-2b (Rattus norvegicus, UniProt Q9JJ09).
T1 construct: expressed in transfected cells; host or cells: Xenopus oocytes injected with cRNA
T1 sequence (Q9JJ09 1-695): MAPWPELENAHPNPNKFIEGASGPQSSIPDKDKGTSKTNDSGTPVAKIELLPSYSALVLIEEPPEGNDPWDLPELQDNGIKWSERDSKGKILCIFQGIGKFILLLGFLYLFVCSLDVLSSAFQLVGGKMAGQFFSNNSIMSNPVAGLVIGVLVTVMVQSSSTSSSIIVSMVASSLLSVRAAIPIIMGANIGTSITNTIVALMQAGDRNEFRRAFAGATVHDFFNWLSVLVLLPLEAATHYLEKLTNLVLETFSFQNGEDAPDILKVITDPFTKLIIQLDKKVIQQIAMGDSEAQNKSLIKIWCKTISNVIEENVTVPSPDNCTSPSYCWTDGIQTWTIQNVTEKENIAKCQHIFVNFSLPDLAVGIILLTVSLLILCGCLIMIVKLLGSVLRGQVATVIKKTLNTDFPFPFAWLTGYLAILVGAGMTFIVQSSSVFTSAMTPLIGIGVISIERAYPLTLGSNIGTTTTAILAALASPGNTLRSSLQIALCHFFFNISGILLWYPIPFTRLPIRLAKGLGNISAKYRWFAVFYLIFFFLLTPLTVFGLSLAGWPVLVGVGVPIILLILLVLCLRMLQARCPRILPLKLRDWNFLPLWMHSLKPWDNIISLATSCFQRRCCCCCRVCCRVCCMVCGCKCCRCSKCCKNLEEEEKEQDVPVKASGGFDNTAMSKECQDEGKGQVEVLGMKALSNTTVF
The experiment in a line: Sodium-dependent phosphate uptake of Xenopus oocytes which expressed NaPi-2b (32P). Type of assay: cell-based. The settings on record: Xenopus oocytes expressing rat NaPi-2b, 32P radioactive phosphorus; read-out: IC50 (phosphate uptake inhibitory activity). The method in brief: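 Rat small-intestine NaPi-2b cRNA injected into Xenopus oocytes, expressed for 2 days. Sodium-dependent phosphate uptake measured with 32P; % inhibition at 300 and 100 μM taken from the same inhibition curve.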
Regarding `CCN(CC)CCN(CCN(CC)CC)Cc1cccc(C(=O)Nc2sc3c(c2C(=O)N/N=C/c2ccc(C)cc2)CCCC3)c1` [Compound 1056, 3-{[Bis-(2-diethylamino-ethyl)-amino]-methyl}-N-[3-(4-methyl-benzylidene-hydrazinocarbonyl)-4,5,6,7-tetrahydro-benzo[b]thiophen-2-yl]-benzamide], the IC50 turned out to be 1880 nM.
Still for that read-out and setting: as for `Cc1csc(NC(=O)c2cccc(CN(CC(C)O)CC(C)O)c2)c1C(=O)N/N=C/c1ccc(F)cc1` (stereo not drawn) [Compound 589, 3-{[Bis-(2-hydroxy-propyl)-amino]-methyl}-N-[3-(4-fluoro-benzylidene-hydrazinocarbonyl)-4-methyl-thiophen-2-yl]-benzamide], the figure is less than 3000 nM; as for `CCN(CC)CCN(C)Cc1cccc(C(=O)Nc2ccc(Cl)cc2C(=O)N/N=C/c2cccc(F)c2)c1` [Compound 379, N-[4-Chloro-2-(3-fluoro-benzylidene-hydrazinocarbonyl)-phenyl]-3-{[(2-diethylamino-ethyl)-methyl-amino]-methyl}-benzamide], 970 nM; as for `COc1ccc(/C=N/NC(=O)c2cc(Br)ccc2NC(=O)c2ccc(CN3CCC(CO)CC3)cc2)cc1` [Compound 338, N-[4-Bromo-2-(4-methoxy-benzylidene-hydrazinocarbonyl)-phenyl]-4-(4-hydroxymethyl-piperidin-1-ylmethyl)-benzamide], 19000 nM.
On the same count and under the same terms, the same measure for `Cc1ccc(/C=N/NC(=O)c2cc(Br)ccc2NC(=O)c2cccs2)cc1` [Compound 160, Thiophene-2-carboxylic acid [4-bromo-2-(4-methyl-benzylidene-hydrazinocarbonyl)-phenyl]-amide]: 930 nM.
The same measure, in the same setting: the same measure for `Cc1cc(/C=N/NC(=O)c2cc(Br)ccc2NC(=O)c2cccnc2)oc1C` [Compound 220, N-[4-Bromo-2-(4,5-dimethyl-furan-2-ylmethylene-hydrazinocarbonyl)-phenyl]-nicotinamide]: 9420 nM; for `Cc1ccc(/C=N/NC(=O)c2cc(Cl)ccc2NC(=O)c2cccc(CS(=O)(=O)Cc3ccco3)c2)cc1C` [Compound 686, N-[4-Chloro-2-(3,4-dimethyl-benzylidene-hydrazinocarbonyl)-phenyl]-3-(furan-2-ylmethanesulfonylmethyl)-benzamide]: less than 3000 nM; for `CCN(CC)CCN(C)Cc1cccc(C(=O)Nc2sc3c(c2C(=O)N/N=C/c2ccc(OCCO)cc2)CCCC3)c1` [Compound 1002, 3-{[(2-Diethylamino-ethyl)-methyl-amino]-methyl}-N-{3-[4-(2-hydroxy-ethoxy)-benzylidene-hydrazinocarbonyl]-4,5,6,7-tetrahydro-benzo[b]thiophen-2-yl}-benzamide]: 2580 nM.
With `CN(CCO)Cc1ccc(C(=O)Nc2ccc(Cl)cc2C(=O)N/N=C/c2ccc(Cl)c(C(F)(F)F)c2)cc1` [Compound 417, N-[4-Chloro-2-(4-chloro-3-trifluoromethyl-benzylidene-hydrazinocarbonyl)-phenyl]-4-{[(2-hydroxy-ethyl)-methyl-amino]-methyl}-benzamide], the IC50 is less than 3000 nM.

The assay is the same for the next values; noted with them: phosphate uptake, oocytes expressing rat NaPi-2b; 300 μM, determined from inhibition curve.
Consider `CCN(CC)Cc1cccc(C(=O)Nc2sc(CN3CCCCC3)c(C)c2C(=O)N/N=C/c2ccc(OC)cc2)c1` [Compound 957, 3-Diethylaminomethyl-N-[3-(4-methoxy-benzylidene-hydrazinocarbonyl)-4-methyl-5-piperidin-1-ylmethyl-thiophen-2-yl]-benzamide], for which at 300 µM the inhibition was 54.9%.
The same measure, in the same setting: as for `Cc1csc(C(=O)N/N=C/c2ccc(F)cc2)c1NC(=O)c1cccc(CN2CCN(CCO)CC2)c1` [Compound 534, N-[2-(4-Fluoro-benzylidene-hydrazinocarbonyl)-4-methyl-thiophen-3-yl]-3-[4-(2-hydroxy-ethyl)-piperazin-1-ylmethyl]-benzamide], the figure is 43.8%; as for `COc1ccc(/C=N/NC(=O)c2scc(C)c2NC(=O)c2cccc(CN3CCC(N4CCCCC4)CC3)c2)cc1` [Compound 531, 3-[1,4′]Bipiperidinyl-1′-ylmethyl-N-[2-(4-methoxy-benzylidene-hydrazinocarbonyl)-4-methyl-thiophen-3-yl]-benzamide], 35.7%.

One may read the IC50 as the concentration that gives 50% inhibition. By inhibition is commonly meant the share of the control response that was lost under treatment. Higher therefore signals strong suppression.
